According to patent US20260345619A1 (Principia Biopharma Inc., priority 2023, published 2026):

Assay: Loss of asthma control (LOAC) events, 12-week ICS/LABA withdrawal study
Format: in vivo, human
Details: 400 mg TID
From the text: The general construct of this 12-week Loss of Asthma Control (LOAC) study consisted of a 4-week standardized ICS/LABA background therapy stabilization phase, a 4or 5-week background therapy withdrawal phase and a 3- or 4-week no background therapy phase, followed by a 4-week post IMP treatment safety follow-up period at the beginning of which, pre-screening asthma controller medications are restarted. Participants had access to short-acting β-agonist (SABA) reliever medication at all times during the protocol.
The primary endpoint was the proportion of patients with LOAC. The key secondary endpoint for the study was change in pre-bronchodilator FEV1 from baseline at EOT.
The primary endpoint was proportion of participants with LOAC during the 12-week treatment period.
Note that if the number of participants in some regions was too low, these regions may have been pooled with other regions. This strategy also applied to all the rest of the analyses where region was one of the covariates.
To assess the consistency in treatment effects across different subgroup levels, subgroup analyses were to be performed for the primary efficacy endpoint with respect to age group, gender, region, and other factors.
Secondary endpoints included pre-bronchodilator FEV1 change from baseline at EOT, ACQ-5 score change from baseline, and AQLQ score change from baseline. Other secondary and exploratory endpoints are described in Table 2.

[1] = all others than low EOS and low FeNO
[2] = baseline IgA <Median (2190) mg/L
[3] = baseline IgA ≥Median (2190) mg/L
[4] = baseline IgE <Median (121.85) IU/mL
[5] = baseline IgE ≥Median (121.85) IU/mL
[6] = baseline pre-BD FEV1 <Median (2.1955) L
[7] = baseline pre-BD FEV1 ≥Median (2.1955) L
[8] = blood eosinophil level 1 <0.15 (10^9/L)
[9] = blood eosinophil level 1 ≥0.15-<0.3 (10^9/L)
[10] = blood eosinophil level 1 ≥0.3 (10^9/L)
[11] = blood eosinophil level 2 <0.3 (10^9/L)
[12] = blood eosinophil level 2 ≥0.3 (10^9/L)
[13] = low EOS (<0.15) and low FeNO (<25)
[14] = percent predicted FEV1 group 1 <Median (77)
[15] = percent predicted FEV1 group 1 ≥Median (77)
[16] = percent predicted FEV1 group 2 <80
[17] = percent predicted FEV1 group 2 ≥80

CC(C)(C=C(C#N)C(=O)N1CCC[C@@H](n2nc(-c3ccc(Oc4ccccc4)cc3F)c3c(N)ncnc32)C1)N1CCN(C2COC2)CC1 (mixture of isomers) [rilzabrutinib, (R)-2-[3-[4-amino-3-(2-fluoro-4-phenoxy-phenyl)pyrazolo[3,4-d]pyrimidin-1-yl]piperidine-1-carbonyl]-4-methyl-4-[4-(oxetan-3-yl)piperazin-1-yl]pent-2-enenitrile]
OR vs. placebo [1]: 0.752 | RD vs. Placebo [1]: −0.049 | LOAC, number (atopic medical conditions: No): 8 | OR vs. placebo (atopic medical conditions: No): 0.493 | RD vs. Placebo (atopic medical conditions: No): −0.130 | LOAC, number (atopic medical conditions: Yes): 4 | OR vs. placebo (atopic medical conditions: Yes): 0.821 | RD vs. Placebo (atopic medical conditions: Yes): −0.031 | LOAC, number (background ICS dose High): 6 | OR vs. placebo (background ICS dose High): 0.911 | RD vs. Placebo (background ICS dose High): −0.011 | LOAC, number (background ICS dose Medium): 6 | OR vs. placebo (background ICS dose Medium): 0.421 | RD vs. Placebo (background ICS dose Medium): −0.173 | LOAC, number (baseline ACQ-5 >2): 6 | OR vs. placebo (baseline ACQ-5 >2): 0.346 | RD vs. Placebo (baseline ACQ-5 >2): −0.181 | LOAC, number (baseline ACQ-5 ≤2): 6 | OR vs. placebo (baseline ACQ-5 ≤2): 1.162 | RD vs. Placebo (baseline ACQ-5 ≤2): 0.025 | LOAC, number (baseline FeNO level 1 <25 ppb): 9 | OR vs. placebo (baseline FeNO level 1 <25 ppb): 0.567 | RD vs. Placebo (baseline FeNO level 1 <25 ppb): −0.065 | LOAC, number (baseline FeNO level 1 ≥25 ppb): 3 | OR vs. placebo (baseline FeNO level 1 ≥25 ppb): 0.798 | RD vs. Placebo (baseline FeNO level 1 ≥25 ppb): −0.053 | LOAC, number (baseline FeNO level 2 <35 ppb): 9 | OR vs. placebo (baseline FeNO level 2 <35 ppb): 0.655 | RD vs. Placebo (baseline FeNO level 2 <35 ppb): −0.029 | LOAC, number (baseline FeNO level 2 ≥35 ppb): 3 | OR vs. placebo (baseline FeNO level 2 ≥35 ppb): 0.628 | RD vs. Placebo (baseline FeNO level 2 ≥35 ppb): −0.094 | LOAC, number [2]: 6 | OR vs. placebo [2]: 0.774 | RD vs. Placebo [2]: −0.011 | LOAC, number [3]: 6 | OR vs. placebo [3]: 0.514 | RD vs. Placebo [3]: −0.120 | LOAC, number (baseline IgE <100 IU/mL): 4 | OR vs. placebo (baseline IgE <100 IU/mL): 0.602 | RD vs. Placebo (baseline IgE <100 IU/mL): −0.085 | LOAC, number [4]: 6 | OR vs. placebo [4]: 0.681 | RD vs. Placebo [4]: −0.070 | LOAC, number (baseline IgE ≥100 IU/mL): 8 | OR vs. placebo (baseline IgE ≥100 IU/mL): 0.522 | RD vs. Placebo (baseline IgE ≥100 IU/mL): −0.122 | LOAC, number [5]: 6 | OR vs. placebo [5]: 0.510 | RD vs. Placebo [5]: −0.122 | LOAC, number [6]: 7 | OR vs. placebo [6]: 0.827 | RD vs. Placebo [6]: −0.036 | OR vs. placebo [7]: 0.362 | RD vs. Placebo [7]: −0.176 | LOAC, number [8]: 6 | OR vs. placebo [8]: 0.716 | RD vs. Placebo [8]: −0.062 | LOAC, number [9]: 4 | OR vs. placebo [9]: 1.619 | RD vs. Placebo [9]: 0.072 | LOAC, number [10]: 2 | OR vs. placebo [10]: 0.139 | RD vs. Placebo [10]: −0.363 | LOAC, number [11]: 10 | OR vs. placebo [11]: 1.019 | RD vs. Placebo [11]: 0.047 | LOAC, number [12]: 2 | OR vs. placebo [12]: 0.146 | RD vs. Placebo [12]: −0.350 | LOAC, number [13]: 4 | OR vs. placebo [13]: 0.441 | RD vs. Placebo [13]: −0.157 | LOAC, number [14]: 4 | OR vs. placebo [14]: 0.452 | RD vs. Placebo [14]: −0.129 | LOAC, number [15]: 8 | OR vs. placebo [15]: 0.599 | RD vs. Placebo [15]: −0.078 | LOAC, number [16]: 7 | OR vs. placebo [16]: 0.736 | RD vs. Placebo [16]: −0.047 | OR vs. placebo [17]: 0.429 | RD vs. Placebo [17]: −0.139 | LOAC, number (smoking history Former): 2 | OR vs. placebo (smoking history Former): 0.500 | RD vs. Placebo (smoking history Former): −0.167 | LOAC, number (smoking history Never): 10 | OR vs. placebo (smoking history Never): 0.551 | RD vs. Placebo (smoking history Never): −0.102
